The text below walks through data of PMC8597046, “Use of Mixture Dosing and Nonlinear Mixed Effect Modeling of Eight Environmental Contaminants in Rabbits to Improve Extrapolation Value of Toxicokinetic Data” (Environmental Health Perspectives, 2021).

Where only a bound is given, the exact number is not on record here.

Data set [1] can be described thus: Nonlinear mixed effect (NLME) compartmental modeling of merged IV and oral serum concentrations. The following applies: for tvK12 (distribution rate constant) / tvK21 (distribution rate constant) / tvVc (volume of the central compartment) / tvKabs (rate constant of absorption) / tvK10 (elimination rate constant from the central compartment): population primary parameter, typical value; for tvKabs (rate constant of absorption) / AUCVO: MEHP after oral DEHP; for Volume(s) of the peripheral compartment: for PFOA first peripheral compartment; for AUCIV: dosing time to infinity after intravenous dosing; for AUCVO: dosing time to infinity after oral dosing. From the text: A nonlinear mixed effect (NLME) modeling approach was used to analyze simultaneously all data obtained from the different rabbits after both IV and oral administrations and to provide robust estimates of the typical TK parameters.
The primary parameters of the model, namely the volume of distribution of the central compartment (V1), the first-order rate constants ( K10 , K12 , K21 , and Kabs plus K13 , K31 for PFOA) and the bioavailability (F) and their associated precisions [standard error (SE)] were estimated by minimizing an objective function value (OFV) expressed as minus twice the log of the likelihood estimation ( −2LL ). […] Marginal likelihood was approximated by using the Laplacian engine by default and, when this engine was unable to determine the SE of the estimate, the Quasi-Random Parametric Expectation Maximization (QRPEM) was selected.
Between subject variability (BSV) of the parameters was measured using the exponential model θparameter_i=θtv_parameter×exp (ηi), where θparameter_i is the parameter estimated for the ith individual, θtv_parameter is the typical population value of the parameter, and ηi is the deviation associated with the ith individual from the corresponding value of the parameter at the population level.
The distribution of ηi was assumed to be normal with a mean of 0 and a variance ω² . BSV was reported as a coefficient of variation (CV) in the original scale CV(%)=100× exp (ω^2)−1 .
The residual variance was modeled using a combined additive and proportional error model Cobsij=Cpredij(1 + ε1ij) + ε2ij, where Cobsij and Cpredij are respectively the jth observed and predicted concentrations for the ith individual, and ε1ij and ε2ij are the multiplicative and additive residual errors.
Secondary parameters were calculated from the population primary parameters.
The clearance values (CL) were estimated using Equation 5: (5) CL=K10×V1, where V1 is the volume of the central compartment and K10 is the elimination rate constant from the central compartment.
The volume of the peripheral compartment (V2) was estimated with Equation 6: (6) V2=V1×(K12/K21), where K12 and K21 are the distribution rate constants between the central and the peripheral compartments.
The clearance of distribution (Q) was estimated using Equation 7: (7) Q=K12×V1, with […] and K12 as defined above.
The volume of distribution associated with the terminal phase was estimated with Equation 10: (10) VZ=CL/λZ, with λZ as defined above.
The AUC was computed as a secondary parameter using Equation 11: (11) AUC=Dose/CL.
The terminal half-life was estimated with Equation 1, as previously described.

Data set [2] can be described thus: Estimation of loading and daily maintenance doses and NLME model simulations. Further details: species or system female rabbits. The conditions noted are these: oral; for Computed maintenance dose: daily; for Computed maintenance dose / Computed loading dose: scaled to the targeted CSS of Table 6; for Daily maintenance dose: to maintain serum concentration of 1 ng/mL, daily CL×Css/F; for Daily maintenance dose / Loading dose: DEHP dose for MEHP in serum; for Loading dose: to rapidly attain serum concentration of 1 ng/mL, Vss×Css/F. Here is the method:
The ultimate goal of this TK investigation was to compute a dosage regimen that allowed targeted steady-state serum concentrations to be attained rapidly for a planned TK/TD trial on the reprotoxic effect of a mixture of environmental contaminants in female rabbits. […] With that in mind, the loading and the daily maintenance doses of each compound were evaluated using Equations 12 and 13, respectively.
This risk was also the reason why the NLME model was employed to simulate the time development of the amounts of compounds in the central and peripheral compartments following administration of the daily maintenance dose of each compound over the same duration.
The loading and maintenance doses computed to ensure a nominal CSS of 1 ng/mL were scaled to determine the doses to be administrated by oral route to female rabbits to maintain the targeted CSS .

The conditions of data set [3]: rodents; ref Staskal et al. 2005; cited from earlier work.
The mark [4] stands for this setting: female, New Zealand white (INRA 1777 line), rabbit, in vivo.
Where [5] appears, read: female, New Zealand white (INRA 1777 line), rabbit, in vivo, po, Oral bioavailability (F), NLME model.
The mark [6] stands for this setting: female, New Zealand white, rabbit, in vivo.
Setting [7] is: female, New Zealand white, rabbit, in vivo, population secondary parameter, mean.
The mark [8] stands for this setting: female, New Zealand white, rabbit, in vivo, iv.
The mark [9] stands for this setting: female, New Zealand white, rabbit, in vivo, po.
Setting [10] is: female, New Zealand white, rabbit, in vivo, po, Bioavailability, population secondary parameter, mean, as fraction.
[11] abbreviates: population secondary parameter, mean.
Setting [12] is: terminal, population secondary parameter, mean.

What is called half-life is the time in which the quantity being followed falls by half. Turning to `Brc1ccc(Oc2ccc(Br)cc2Br)c(Br)c1` [BDE-47, 2,2′,4,4′-tetrabromodiphenyl ether], in data set [1] (setting [4]), the Vd worked out at 45 L/kg and the k el was 1.8e-05 s⁻¹. In addition, the bioavailability in data set [1] (setting [5]) was over 85%. In data set [1] (setting [6]), this molecule had an MRT of 5.54 days and a half-life of 6.79 days. The molecule also had a clearance in data set [1] (setting [7]) of 5.67 mL/min/kg. In data set [1] (setting [8]), this molecule came in with an AUC of 29 µM·h. For the same molecule, in data set [1] (setting [9]), the AUC was 71 µM·h. For the same molecule, the bioavailability in data set [1] (setting [10]) came to 96%. The same molecule gave an AUCVO/dose in data set [1] (oral dosing) of 2.97 μmol×h/L per μmol/kg BW. Further, in data set [1] (mean), the “tvK12 (distribution rate constant)” value was found to be 0.0697 h⁻¹, the “tvK21 (distribution rate constant)” value amounted to 0.009154 h⁻¹, the “tvVc (volume of the central compartment)” value is 5.188 L/kg and the “tvKabs (rate constant of absorption)” value worked out at 0.02289 h⁻¹. Moreover, in data set [1] (setting [11]), the “Volume(s) of the peripheral compartment” value is on record as 39 L/kg. Moreover, in data set [2], the Computed maintenance dose was 1.3 µg/kg, the Computed loading dose is 7.5 µg/kg, the Daily maintenance dose was 8.4 µg/kg and the Loading dose is 47 µg/kg. Also, in data set [3], the Intestinal absorption is 82%.
As to `O=S(=O)(c1ccc(O)cc1)c1ccc(O)cc1` [BPS, bisphenol S], in data set [1] (population secondary parameter), the AUCIV worked out at 3.3 µM·h and the AUCVO came out at 3.6 µmol·h/L. Besides, in data set [1] (fixed to 10, estimation of Kabs converging toward infinity), the “tvKabs (rate constant of absorption), fixed” value was 10 h⁻¹. Moreover, in data set [1] (oral, dose-normalised AUC), the Oral systemic exposure was determined as 0.20 μmol/h/L per μmol/kg BW. Moreover, in data set [1] (mean), the “tvK10 (elimination rate constant from the central compartment)” value (from here on “tvK10”) is 1.895 h⁻¹ and the “tvVc (volume of the central compartment)” value worked out at 1.681 L/kg. In addition, the MRT in data set [1] (setting [11]) came to 0.262 days. Also, in data set [2], the Computed maintenance dose is 122 µg/kg, the Computed loading dose is 32 µg/kg, the Daily maintenance dose is 122 µg/kg and the Loading dose is 32 µg/kg.
For `CCCCC(CC)COC(=O)c1ccccc1C(=O)O` (centres unmarked) [MEHP, mono(2-ethylhexyl)phthalate], in data set [1] (MEHP IV vs DEHP oral, NLME model), the “F value for MEHP (fraction of the DEHP dose metabolized into MEHP)” value is listed as 87%. Moreover, in data set [1] (population secondary parameter), the AUCIV came to 9.0 µM·h and the AUCVO was 53 µmol·h/L. Moreover, in data set [1] (mean), the “tvK10” value worked out at 1.411 h⁻¹, the “tvK12 (distribution rate constant)” value is 0.285 h⁻¹ and the “tvVc (volume of the central compartment)” value is recorded as 0.329 L/kg. Moreover, in data set [1] (setting [11]), the Clearance is 7.83 mL/min/kg, the MRT worked out at 0.342 days and the “Volume(s) of the peripheral compartment” value turned out to be 3.5 L/kg. Also, the MRT entry in data set [1] (population secondary parameter, mean, listed as mono-2-ethylhexyl phthalate) is reported as “a few hours”. In addition, the half-life in data set [1] (setting [12]) amounted to 1.29 days.
With `O=S(=O)(O)C(F)(F)C(F)(F)C(F)(F)C(F)(F)C(F)(F)C(F)(F)C(F)(F)C(F)(F)F` [nPFOS, linear isomer of perfluorooctane sulfonate], in data set [1] (NLME model), the MRT was 47.6 days, the “Oral bioavailability (F)” value is given as “total” and the “Terminal HL” value was found to be 33 days. For the same molecule, in data set [1] (population secondary parameter), the AUCIV was found to be 355 µM·h and the AUCVO is 1,246 μmol×h/L. In data set [1] (oral dosing), the AUCVO/dose is 3,115 μmol×h/L per μmol/kg BW. The same molecule returned a bioavailability in data set [1] (oral, population secondary parameter, mean, as fraction) of 1. Further, in data set [1] (mean), the “tvK10” value turned out to be 0.00111 h⁻¹, the “tvK12 (distribution rate constant)” value stood at 0.153 h⁻¹, the “tvK21 (distribution rate constant)” value was found to be 0.581 h⁻¹ and the “tvVc (volume of the central compartment)” value amounted to 0.290 L/kg. Also, the “tvKabs (rate constant of absorption)” value in data set [1] (mean) stood at 0.252 h⁻¹. Also, in data set [1] (setting [11]), the Clearance turned out to be 0.00533 mL/min/kg, the VSS was determined as 0.37 L/kg and the “Volume(s) of the peripheral compartment” value was 0.077 L/kg. Also, the half-life in data set [1] (setting [12]) was determined as 33 days. Also, in data set [2], the Daily maintenance dose is 0.0077 µg/kg and the Loading dose was 0.37 µg/kg.
`ClC(Cl)=C(c1ccc(Cl)cc1)c1ccc(Cl)cc1` [pp′DDE, 1,1-Dichloro-2,2-bis(p-chlorophenyl)ethylene]: in data set [1] (setting [4]), the Vd is 35 L/kg and the k el is 1.33e-05 s⁻¹. In data set [1] (female, New Zealand white (INRA 1777 line), rabbit, in vivo, po, Oral bioavailability (F)), the bioavailability stood at 72%. In addition, in data set [1] (setting [6]), the MRT came out at 10.9 days, the half-life was 11.3 days and the clearance was 2.17 mL/min/kg. The AUC in data set [1] (setting [8]) turned out to be 17 µM·h. In data set [1] (setting [9]), this molecule displayed an AUC of 77 µM·h and an AUCVO/dose of 5.35 μmol×h/L per μmol/kg BW. In data set [1] (female, New Zealand white, rabbit, in vivo, po, Bioavailability), the bioavailability came out at 72%. Moreover, in data set [1] (mean), the “tvK12 (distribution rate constant)” value came out at 0.08353 h⁻¹, the “tvK21 (distribution rate constant)” value amounted to 0.00729 h⁻¹, the “tvVc (volume of the central compartment)” value is 2.821 L/kg and the “tvKabs (rate constant of absorption)” value came out at 0.01994 h⁻¹. In addition, the “Volume(s) of the peripheral compartment” value in data set [1] (setting [11]) is recorded as 32 L/kg. Besides, in data set [2], the Computed maintenance dose was 95 µg/kg, the Computed loading dose is on record as 1,039 μg/kg, the Daily maintenance dose was 4.5 µg/kg and the Loading dose was 49 µg/kg.
In data set [1] (setting [4]), `Cl[C@H]1[C@H](Cl)[C@@H](Cl)[C@H](Cl)[C@@H](Cl)[C@@H]1Cl` [β-HCH, β-hexachlorocyclohexane] displayed a Vd of 33 L/kg. This molecule returned a bioavailability in data set [1] (setting [5]) of over 85%. In data set [1] (female, New Zealand white (INRA 1777 line), rabbit, serum, other: intravenous and oral data merged), this molecule showed a k el of 4.69e-06 s⁻¹. In data set [1] (setting [6]), this molecule showed an MRT of 15.8 days and a half-life of 13.2 days. Besides, the clearance in data set [1] (setting [7]) is 1.45 mL/min/kg. The same molecule yielded an AUC in data set [1] (setting [8]) of 20 µM·h. Also, the AUC in data set [1] (setting [9]) was found to be 87 µM·h. In addition, the bioavailability in data set [1] (setting [10]) was determined as 88%. The molecule further displayed an AUCVO/dose in data set [1] (oral dosing) of 12.5 μmol×h/L per μmol/kg BW. In addition, in data set [1] (mean), the “tvK12 (distribution rate constant)” value is 0.0593 h⁻¹, the “tvK21 (distribution rate constant)” value turned out to be 0.0110 h⁻¹, the “tvVc (volume of the central compartment)” value was 5.1310 L/kg and the “tvKabs (rate constant of absorption)” value came to 0.0955 h⁻¹. For the same molecule, the “Volume(s) of the peripheral compartment” value in data set [1] (setting [11]) is 28 L/kg. For the same molecule, in data set [2], the Computed maintenance dose was 11 µg/kg, the Computed loading dose was 163 µg/kg, the Daily maintenance dose is 2.4 µg/kg and the Loading dose was 37 µg/kg.
